Results taken from US11725036B2, “Modified lipidated relaxin B chain peptides and their therapeutic use” (Sanofi, priority 2018, dated 2023).
≈ marks a conversion by molar mass, not a printed value. Where two headings read alike, the source gives them in different places. Marks after values point to notes of the source that are not given here. Starred links: 1 amine or outer side, 2 acyl side, 3 side chain; linkers in the order of their positions; H or OH if unused. Non-standard residues stand in square brackets, D forms with d. Residues, ends and D or L forms follow the SMILES beside them. Groups on a side chain read outwards from the residue. *: point of attachment. X1 = CCCCCCCCCCCCCCCC(=O)N[C@@H](CCC(=O)N[C@@H](CCC(=O)N[C@@H](CCC(=O)NCCCOCCOCCOCCCNC(=O)CCC(=O)NCCCOCCOCCOCCCNC(=O)CCC(=O)NCCCOCCOCCOCCCN*)C(=O)O)C(=O)O)C(=O)O; X2 = CCCCCCCCCCCCCCCC(=O)N[C@@H](CCC(=O)N[C@@H](CCC(=O)N[C@@H](CCC(=O)NCCCOCCOCCOCCCNC(=O)CCC(=O)NCCCOCCOCCOCCCN*)C(=O)O)C(=O)O)C(=O)O; Suc = O=C(CCC(=O)[*:2])[*:1]; αMeK = C[C@](N)(CCCCN)C(=O)O; Aib = CC(C)(N)C(=O)O

What was measured:
Stability in rat blood = type: in vitro ADME; settings: for Rat blood stability % remaining: T = 0, 37° C., 5 μM; for remaining at 1 h, 5 μM / remaining at 4 h, 5 μM: rat, whole blood (sodium or lithium heparin), 37° C.
Method: (§1) Prior to the testing of stability in plasma (or blood) of a peptide batch, its purity (HPLC-UV) was determined.
(§2) Rat and Human blood: anti-coagulant sodium or lithium heparin.
(§3) 100 μM solution of study compound in 50 mM phosphate buffer pH 7.4.
(§4) 950 μL plasma (or blood) was pre-incubated for 5 min at 37° C. 50 μL of compound stock solution was added. Final compound concentration=5 μM. Vortex and transfer 150 μL plasma (or blood) into an Eppendorf for each time point. The time points […] were carried out in duplicate for each species.
(§5) After incubation, 150 μL plasma (or blood) was extracted with 600 μL Acetonitrile containing 1% TFA. Said mixture was then vortexed and centrifuged 10 min at 14600 rpm. 200 μL supernatant was dried under N2. Sample was then reconstituted in 200 μL of H2O/CH3CN 98/2+0.1% FA+50 ng/ml Labetalol and analyzed using the analytical system used in solubility and stability studies.
(§6) For determination of the amount of the remaining peptide, the peak areas of the target compound at t0 and each time point […] were compared, resulting in “% remaining peptide”, following the equation: % remaining peptide=[(peak area peptide time)×100]/peak area peptide t0. The stability was expressed as “% remaining peptide”.

Stability in human blood = type: in vitro ADME; settings: for Human blood stability % remaining: T = 0, 37° C., 5 μM; for remaining at 1 h, 5 μM / remaining at 4 h, 5 μM: human, whole blood (sodium or lithium heparin), 37° C.
Method: as §1, §2, §3, §4, §5, §6

Stability in rat plasma = type: in vitro ADME; settings: for Rat plasma stability % remaining: T = 0, 37° C., 5 μM; for remaining at 1 h, 5 μM / remaining at 4 h, 5 μM: rat, plasma (sodium or lithium heparin), 37° C.
Method: as §1
(§7) Rat and Human plasma: anti-coagulant sodium or lithium heparin.
as §3, §4, §5, §6

[1] = Solubility testing in buffer; type: physicochemical; settings: target solubility 10.0 mg/ml
[2] = Stability in human plasma; type: in vitro ADME; settings: for Human Plasma stability % remaining: T = 0, 37° C., 5 μM; for remaining at 1 h, 5 μM / remaining at 4 h, 5 μM: human, plasma (sodium or lithium heparin), 37° C.
Method: as §1, §7, §3, §4, §5, §6

[3] = acetate buffer 50 mM pH 4.5, read-out: Solubility Acetate buffer pH 4.5
[4] = phosphate buffer 50 mM pH 7.4, read-out: Solubility phosphate buffer pH 7.4

| Rat blood stability % remaining (Stability in rat blood) | remaining at 1 h, 5 μM (Stability in rat blood) [%] | remaining at 4 h, 5 μM (Stability in rat blood) [%] | Human blood stability % remaining (Stability in human blood) | remaining at 1 h, 5 μM (Stability in human blood) [%] | remaining at 4 h, 5 μM (Stability in human blood) [%] | Rat plasma stability % remaining (Stability in rat plasma) [%] | remaining at 1 h, 5 μM (Stability in rat plasma) [%] | remaining at 4 h, 5 μM (Stability in rat plasma) [%] | solubility [1, 3] [mg/mL] | solubility [1, 4] [mg/mL] | Human Plasma stability % remaining [2] [%] | remaining at 1 h, 5 μM [2] [%] | remaining at 4 h, 5 μM [2] [%] | Structure (SMILES) |
| --- | --- | --- | --- | --- | --- | --- | --- | --- | --- | --- | --- | --- | --- | --- |
| 100* % | 95 | 84 | 100* % | 95 | 95 | 98 | 100 | 87 | 11.1 (≈ 2550 µM) | 11.5 (≈ 2640 µM) | 99 | 95 | 100 | CCCCCCCCCCCCCCCC(=O)N[C@@H](CCC(=O)N[C@@H](CCC(=O)N[C@@H](CCC(=O)NCCCOCCOCCOCCCNC(=O)CCC(=O)NCCCOCCOCCOCCCNC(=O)CCC(=O)NCCCOCCOCCOCCCNC(=O)CCC(=O)NCCCC[C@H](NC(=O)CNC(=O)[C@H](CCC(=O)O)NC(=O)C(C)(C)NC(=O)C(C)(C)NC(=O)[C@@H](NC(=O)[C@H](CCCCNC(C)=O)NC(=O)[C@H](C)NC(=O)[C@H](CCCNC(=N)N)NC(=O)[C@@H](NC(=O)[C@H](CCCCN)NC(=O)[C@H](CCC(=O)O)NC(=O)[C@H](CCCNC(=N)N)NC(=O)CNC(=O)[C@H](CCC(=O)O)NC(=O)[C@H](CC(C)C)NC(C)=O)C(C)C)[C@@H](C)CC)C(=O)N[C@@H](CO)C(=O)N[C@H](C(=O)N[C@@H](Cc1ccccc1)C(=O)N[C@@H](CO)C(=O)N[C@@](C)(CCCCN)C(=O)N[C@@H](CCCNC(=N)N)C(=O)N[C@@H](C)C(=O)N[C@@H](CCCCNC(C)=O)C(N)=O)[C@@H](C)O)C(=O)O)C(=O)O)C(=O)O [compound 3] (Ac-LEGREKVRAK(Ac)I[Aib][Aib]EGK([Suc-X1])STFS[αMeK]RAK(Ac)-NH2) |
| 100* % | 102 | 86 | 100* % | 100 | 99 | 100 | 100 | 59 | 9.63 (≈ 2350 µM) | 7.71 (≈ 1880 µM) | 100 | 100 | 100 | CCCCCCCCCCCCCCCC(=O)N[C@@H](CCC(=O)N[C@@H](CCC(=O)N[C@@H](CCC(=O)NCCCOCCOCCOCCCNC(=O)CCC(=O)NCCCOCCOCCOCCCNC(=O)CCC(=O)NCCCC[C@H](NC(=O)CNC(=O)[C@H](CCC(=O)O)NC(=O)C(C)(C)NC(=O)C(C)(C)NC(=O)[C@@H](NC(=O)[C@H](CCCCNC(C)=O)NC(=O)[C@H](C)NC(=O)[C@H](CCCNC(=N)N)NC(=O)[C@@H](NC(=O)[C@H](CCCCN)NC(=O)[C@H](CCC(=O)O)NC(=O)[C@H](CCCNC(=N)N)NC(=O)CNC(=O)[C@H](CCC(=O)O)NC(=O)[C@H](CC(C)C)NC(C)=O)C(C)C)[C@@H](C)CC)C(=O)N[C@@H](CO)C(=O)N[C@H](C(=O)N[C@@H](Cc1c[nH]c2ccccc12)C(=O)N[C@@H](CO)C(=O)NC(C)(C)C(=O)N[C@@H](CCCNC(=N)N)C(=O)N[C@@H](CCCCN)C(=O)N[C@@H](CCCCNC(C)=O)C(N)=O)[C@@H](C)O)C(=O)O)C(=O)O)C(=O)O [compound 4] (Ac-LEGREKVRAK(Ac)I[Aib][Aib]EGK([Suc-X2])STWS[Aib]RKK(Ac)-NH2) |
